Reference: patent US20250136581A1, “SUBSTITUTED TRIAZOLE DERIVATIVE, PREPARATION METHOD THEREFOR, PHARMACEUTICAL COMPOSITION THEREOF, AND USE THEREOF” (SHANGHAI SIMR BIOTECHNOLOGY CO., LTD., priority 2021, published 2025)

target: human α5β3γ2 receptors (α5-GABAA receptor) (Homo sapiens (Human), UniProt P18507+P31644); experiment: 3H-flunitrazepam competition binding, human α5β3γ2 GABAA receptor; settings: HEK293 cell membranes, 1 nM 3H-flunitrazepam; read-out: α5-GABAAR Ki
Experimental: The affinity of the compound to each subtype of GABAA receptor was determined by competing for the binding of ^3H-flunitrazepam to HEK293 cells stably expressing human α1β3γ2, α2β3γ2, α3β3γ2, and α5β3γ2 receptors.
The cells were suspended in 50 mM Tris-HCl buffer (pH=7.4), homogenized 10 times on ice with a homogenizer for 20 seconds, and centrifuged at 1000 g for 10 minutes at 4° C. The supernatant was collected, and the above steps were repeated. The supernatant was centrifuged at 4° C. (33800 g; Thermo, rotor: A27-8×50) for 60 minutes, and the precipitate was resuspended in Tris buffer (50 mM Tris-HCl, 10 mM MgCl2, 0.5 mM EDTA, 10% glycerol). Protein was measured (BCA method, Pierce), and 1 mL aliquots were prepared and stored at −80° C.
The radioligand competition binding assay was performed in a 200 μL system (96-well plate) containing 100 μL of cell membrane. The concentration of ^3H-flunitrazepam was 1 nM and the concentration of the test compound was in the range of […]. Flumazenil was used as a control. 1 μL of 2 mM flumazenil (final concentration […]) was added to the low signal control well (Low control, LC), and 1 μL of DMSO was added to the high signal control well (High control, HC). The final concentration of target membrane protein was […]. All test compound sample storage solutions were 10 mM. The working concentration of the samples was to dilute all the samples to 0.2 mM with DMSO, followed by 4-fold serial gradient dilutions for a total of 8 concentration gradients. The 96-well plate was sealed with a sealing film, and then incubated on a shaker at room temperature for 1 hour. At the same time, the GF/C filter plate was soaked in soaking buffer (0.3% PEI, stored at 4° C.) for at least 0.5 hours. After the binding incubation was completed, the cells were collected onto a GF/C filter plate using a cell harvester. The plate was washed four times with washing buffer (50 mM Tris-HCl, pH 7.4, stored at 4° C.). After drying in a 50° C. oven for 1 hour, the bottom of the dried GF/C filter plate was sealed. The residual radioactivity on the filter membrane was detected using liquid scintillation counting. 50 μL of scintillation fluid was added to each well, and the plate was sealed. The readings were taken using a Microbeta2. The inhibitory activity of the test sample on the binding of ^3H-flunitrazepam to GABAA receptor membrane proteins was calculated, and the IC50 of each test sample was calculated by dose-effect curve fitting (GraphPad Prism 5 software), and the Ki of the sample was calculated from the IC50, thus evaluating the binding ability of the sample to the various subtypes of GABAA receptors.

Row | SMILES | Ki
1 | Cc1nnn(-c2ccc(C(F)F)cc2)c1COc1ccc(N2CCN(CCn3cccn3)C(=O)C2)nn1 [Example 138, 1-(2-(1H-Pyrazol-1-yl)ethyl)-4-(6-((1-(4-(difluoromethyl)phenyl)-4-methyl-1H-1,2,3-triazol-5-yl)methoxy)pyridazin-3-yl)piperazin-2-one] | 2.11 nM
2 | Cc1nnn(-c2ccc(C(F)F)cc2)c1COc1ccc(N2CC[C@@H]3CCNC(=O)[C@@H]3C2)nn1 (relative stereo) [Example 123, cis-7-(6-((1-(4-(Difluoromethyl)phenyl)-4-methyl-1H-1,2,3-triazol-5-yl)methoxy)pyridazin-3-yl)octahydro-2,7-naphthyridin-1(2H)-one] | 7.2 nM
3 | CCNC(=O)[C@H]1CCN1c1ccc(OCc2c(C)nnn2-c2ccc(C(F)F)cc2)nn1 [Example 40] | 33.6 nM
4 | Cc1nnn(-c2ccc(C(F)F)cc2)c1COc1ccc(N2CCN3C(=O)NC(=O)[C@@H]3C2)nn1 [Example 118, (S)-7-(6-((1-(4-(Difluoromethyl)phenyl)-4-methyl-1H-1,2,3-triazol-5-yl)methoxy)pyridazin-3-yl)tetrahydroimidazo[1,5-a]pyrazine-1,3(2H,5H)-dione] | 1.66 nM
5 | Cc1cc(OCc2c(C)nnn2-c2ccc(C(F)F)cc2)nnc1N1CCNC(=O)C1 [Example 82, 4-(6-((1-(4-(Difluoromethyl)phenyl)-4-methyl-1H-1,2,3-triazol-5-yl)methoxy)-4-methylpyridazin-3-yl)piperazin-2-one] | 0.63 nM
6 | Cc1nnn(-c2ccc(C(F)F)cc2)c1COc1ccc(N2CCN3CC(=O)NC(=O)[C@@H]3C2)nn1 [Example 117, (S)-8-(6-((1-(4-(Difluoromethyl)phenyl)-4-methyl-1H-1,2,3-triazol-5-yl)methoxy)pyridazin-3-yl)hexahydro-1H-pyrazino[1,2-a]pyrazin-1,3-(2H)-dione] | 4.87 nM
7 | Cc1nnn(-c2ccc(C(F)F)cc2)c1COc1ccc(N2CC(C(=O)NCc3ccccc3)C2)nn1 [Example 48, N-Benzyl-1-(6-((1-(4-(difluoromethyl)phenyl)-4-methyl-1H-1,2,3-triazol-5-yl)methoxy)pyridazin-3-yl)azetidine-3-carboxamide] | 2.38 nM
8 | CCNC(=O)C12CC(CN1c1ccc(OCc3c(C)nnn3-c3ccc(C(F)F)cc3)nn1)C2 [Example 115, 2-(6-((1-(4-(Difluoromethyl)phenyl)-4-methyl-1H-1,2,3-triazol-5-yl)methoxy)pyridazin-3-yl)-N-ethyl-2-azabicyclo[2.1.1]hexane-1-carboxamide] | 1.25 nM
9 | CCNC(=O)[C@@H]1CCCN1c1ccc(OCc2c(C)nnn2-c2ccc(C(F)F)cc2)nn1 [Example 42, (S)-1-(6-((1-(4-(Difluoromethyl)phenyl)-4-methyl-1H-1,2,3-triazol-5-yl)methoxy)pyridazin-3-yl)-N-ethylpyrrolidine-2-carboxamide] | 115 nM
10 | Cc1nnc(C2CN(c3ccc(OCc4c(C)nnn4-c4ccc(C(F)F)cc4)nn3)C2)o1 [Example 53, 2-(1-(6-((1-(4-(Difluoromethyl)phenyl)-4-methyl-1H-1,2,3-triazol-5-yl)methoxy)pyridazin-3-yl)azetidin-3-yl)-5-methyl-1,3,4-oxadiazole] | 2.97 nM
11 | Cc1nnn(-c2ccc(C(F)F)cc2)c1COc1ccc(N2CCN(CCN3CCC(F)(F)CC3)C(=O)C2)nn1 [Example 109, 4-(6-((1-(4-(Difluoromethyl)phenyl)-4-methyl-1H-1,2,3-triazol-5-yl)methoxy)pyridazin-3-yl)-1-(2-(4,4-difluoropiperidin-1-yl)ethyl)piperazin-2-one] | 1.53 nM

More lines, now with the values ahead:

Row | Ki | SMILES
12 | 2.53 nM | O=C1NCCN2CCN(c3ccc(OCc4c(C(F)F)nnn4-c4ccc(C(F)F)cc4)nn3)C[C@@H]12 [Example 184, (S)-8-(6-((4-(Difluoromethyl)-1-(4-(difluoromethyl)phenyl)-1H-1,2,3-triazol-5-yl)methoxy)pyridazin-3-yl)hexahydro-2H-pyrazino[1,2-a]pyrazin-1(6H)-one]
13 | 3.27 nM | O=C1CN(c2ccc(OCc3c(C(F)(F)F)nnn3-c3ccc(C(F)F)cc3)nn2)CCN1 [Example 191, 4-(6-((1-(4-(Difluoromethyl)phenyl)-4-(trifluoromethyl)-1H-1,2,3-triazol-5-yl)methoxy)pyridazin-3-yl)piperazin-2-one]
14 | 2.35 nM | Cc1nnn(-c2ccc(C(F)F)cc2)c1COc1ccc(N2CC(C(=O)Nc3cnn(C(C)C)c3)C2)nn1 [Example 150, 1-(6-((1-(4-(Difluoromethyl)phenyl)-4-methyl-1H-1,2,3-triazol-5-yl)methoxy)pyridazin-3-yl)-N-(1-isopropyl-1H-pyrazol-4-yl)azetidine-3-carboxamide]
15 | 1.89 nM | Cc1nnn(-c2ccc(C(F)F)cc2)c1COc1ccc(N2CC(C(=O)Nc3cnn(C(F)F)c3)C2)nn1 [Example 153, N-(1-(Difluoromethyl)-1H-pyrazol-4-yl)-1-(6-((1-(4-(difluoromethyl)phenyl)-4-methyl-1H-1,2,3-triazol-5-yl)methoxy)pyridazin-3-yl)azetidine-3-carboxamide]
16 | 2.32 nM | Cc1nnn(-c2ccc(C(F)F)cc2)c1COc1ccc(N2CCN3CC(C(C)(C)C)NC(=O)[C@@H]3C2)nn1 (single isomer, unassigned) [Example 202]
17 | 1.45 nM | Cc1nnn(-c2ccc(C(F)F)cc2)c1COc1ccc(N2CCN3c4cccnc4NC(=O)[C@@H]3C2)nn1 [Example 193, (S)-3-(6-((1-(4-(difluoromethyl)phenyl)-4-methyl-1H-1,2,3-triazol-5-yl)methoxy)pyridazin-3-yl)-2,3,4,4a-tetrahydro-1H-pyrazino[1,2-a]pyrido[2,3-e]pyrazin-5(6H)-one]
18 | 17.4 nM | Cc1nnn(-c2ccc(C(F)F)cc2)c1COc1ccc(N2CCN3c4ccncc4NC(=O)[C@@H]3C2)nn1 [Example 192, (S)-8-(6-((1-(4-(Difluoromethyl)phenyl)-4-methyl-1H-1,2,3-triazol-5-yl)methoxy)pyridazin-3-yl)-7,8,9,10-tetrahydro-5H-pyrazino[1,2-a]pyrido[3,4-e]pyrazin-6(6aH)-one]
19 | 1.8 nM | Cc1nnn(-c2ccc(C(F)F)cc2)c1COc1ccc(N2CCN(C3CN(C(C)C)C3)C(=O)C2)nn1 [Example 142, 4-(6-((1-(4-(Difluoromethyl)phenyl)-4-methyl-1H-1,2,3-triazol-5-yl)methoxy)pyridazin-3-yl)-1-(1-isopropylazetidin-3-yl)piperazin-2-one]
20 | 1.08 nM | Cc1nnn(-c2ccc(C(F)F)cc2F)c1COc1ccc(N2CCNC(=O)C2)nn1 [Example 167, 4-(6-((1-(4-(Difluoromethyl)-2-fluorophenyl)-4-methyl-1H-1,2,3-triazol-5-yl)methoxy)pyridazin-3-yl)piperazin-2-one]
21 | 49.2 nM | O=C1CN(c2ccc(OCc3cnnn3-c3ccc(Cl)cc3)nn2)CCN1 [Example 214, 4-(6-((1-(4-Chlorophenyl)-1H-1,2,3-triazol-5-yl)methoxy)pyridazin-3-yl)piperazin-2-one]
22 | 1.37 nM | O=C1CN(c2ccc(OCc3c(Cl)nnn3-c3ccc(C(F)F)cc3)nn2)C[C@H]2COCCN12 [Example 183, (S)-8-(6-((4-Chloro-1-(4-(difluoromethyl)phenyl)-1H-1,2,3-triazol-5-yl)methoxy)pyridazin-3-yl)hexahydropyrazino[2,1-c][1,4]oxazin-6(1H)-one]
23 | 13.8 nM | COCc1ccc(-n2nnc(C)c2COc2ccc(N3CCN4CCNC(=O)[C@@H]4C3)nn2)cc1 [Example 161, (S)-8-(6-((1-(4-(Methoxymethyl)phenyl)-4-methyl-1H-1,2,3-triazol-5-yl)methoxy)pyridazin-3-yl)hexahydro-2H-pyrazino[1,2-a]pyrazin-1(6H)-one]
24 | 2.04 nM | COc1cnccc1NC(=O)C1CN(c2ccc(OCc3c(C)nnn3-c3ccc(C(F)F)cc3)nn2)C1 [Example 149, 1-(6-((1-(4-(Difluoromethyl)phenyl)-4-methyl-1H-1,2,3-triazol-5-yl)methoxy)pyridazin-3-yl)-N-(3-methoxypyridin-4-yl)azetidine-3-carboxamide]
25 | 2.4 nM | Cc1nnn(-c2ccc(Cl)cc2)c1COc1ccc(N2CCNC(=O)C2)nn1 [Example 164, 4-(6-((1-(4-Chlorophenyl)-4-methyl-1H-1,2,3-triazol-5-yl)methoxy)pyridazin-3-yl)piperazin-2-one]
